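All cell lines were grown in 96-well plates and treated with compound for 48 hours. Here, GI50 denotes the concentration required for 50% inhibition of growth.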 Activity calls are given as the source filed them. Rule as the data show it: active = GI50 up to about 1.1 µM and inactive = higher.
Tests used:
Experiment in all cases: DTP human tumour cell line panel, 48 h
NCI/ADR-RES = system: NCI/ADR-RES
HOP-92 = system: HOP-92
Hs-578T = system: Hs-578T
SNB-19 = system: SNB-19
HOP-62 = system: HOP-62
DU-145 = system: DU-145
MDA-MB-435 = system: MDA-MB-435
OVCAR-4 = system: OVCAR-4
UACC-257 = system: UACC-257
SK-MEL-2 = system: SK-MEL-2
CCRF-CEM = system: CCRF-CEM
SF-268 = system: SF-268
K562 = system: K562
LOX IMVI = system: LOX IMVI
SK-MEL-28 = system: SK-MEL-28
SR = system: SR
RPMI-8226 = system: RPMI-8226
COLO 205 = system: COLO 205
PC-3 = system: PC-3
TK-10 = system: TK-10

Measured: GI50

COc1ccc(C)cc1NC(=S)N/N=C/c1ccco1
inactive: NCI/ADR-RES 31.4 µM | HOP-92 64.6 µM | Hs-578T 66.7 µM | SNB-19 99.3 µM | HOP-62 48.3 µM | DU-145 > 100 µM | MDA-MB-435 16 µM | OVCAR-4 37.4 µM | UACC-257 30.9 µM | SK-MEL-2 16.6 µM | CCRF-CEM 29 µM | SF-268 56.1 µM | K562 25.9 µM | LOX IMVI 43.1 µM | SK-MEL-28 60.8 µM | SR 11.3 µM | RPMI-8226 21.4 µM | COLO 205 21.8 µM | PC-3 43.4 µM

COC(=O)c1c(OC(C)=O)ccc2c1c1c(n2Cc2ccccc2)C(=O)c2ccccc2C1=O
inactive: NCI/ADR-RES 24 µM | HOP-92 21.4 µM | Hs-578T 19.9 µM | SNB-19 35.3 µM | HOP-62 24.1 µM | TK-10 33.7 µM | DU-145 17 µM | MDA-MB-435 18.7 µM | OVCAR-4 21.8 µM | UACC-257 10.7 µM | SK-MEL-2 18.7 µM | CCRF-CEM 36.3 µM | SF-268 26.5 µM | K562 25.7 µM | SK-MEL-28 21.4 µM | SR 24.9 µM | RPMI-8226 15.7 µM | COLO 205 16.9 µM | PC-3 22.4 µM

Cc1nc(C)c(N2CCN(C#N)CC2)c(O)n1
inactive: NCI/ADR-RES > 100 µM | HOP-92 > 100 µM | Hs-578T > 100 µM | SNB-19 > 100 µM | HOP-62 > 100 µM | TK-10 > 100 µM | DU-145 > 100 µM | MDA-MB-435 > 100 µM | OVCAR-4 > 100 µM | UACC-257 > 100 µM | CCRF-CEM > 100 µM | SF-268 > 100 µM | K562 > 100 µM | LOX IMVI > 100 µM | SK-MEL-28 > 100 µM | SR > 100 µM | RPMI-8226 > 100 µM | COLO 205 > 100 µM | PC-3 > 100 µM

Cc1cc(S(=O)(=O)n2ccnc2Oc2ccccc2)c(SSc2cc(Cl)c(C)cc2S(=O)(=O)n2ccnc2Oc2ccccc2)cc1Cl
inactive: NCI/ADR-RES 43.4 µM | HOP-92 > 100 µM | Hs-578T 1.95 µM | SNB-19 > 100 µM | TK-10 > 100 µM | DU-145 74.1 µM | MDA-MB-435 > 100 µM | OVCAR-4 35.3 µM | UACC-257 > 100 µM | SK-MEL-2 > 100 µM | SF-268 59.6 µM | K562 > 100 µM | LOX IMVI > 100 µM | SK-MEL-28 > 100 µM | SR 44 µM | RPMI-8226 > 100 µM | COLO 205 > 100 µM | PC-3 > 100 µM

Cc1ccc(C2=Nc3c(N)nc(N)nc3NC(c3ccccc3)C2)cc1 (stereo not given)
inactive: NCI/ADR-RES 4.34 µM | HOP-92 10.3 µM | Hs-578T 13 µM | SNB-19 13.4 µM | HOP-62 12.5 µM | TK-10 14.4 µM | DU-145 14.8 µM | MDA-MB-435 2.24 µM | OVCAR-4 13.9 µM | UACC-257 12.2 µM | CCRF-CEM 7.41 µM | SF-268 14.9 µM | K562 4.06 µM | LOX IMVI 11 µM | SK-MEL-28 12 µM | SR 6.92 µM | RPMI-8226 7.01 µM | PC-3 10.5 µM

CCN(CC)c1ccc(/C=C/C=C2C(=O)NC(=S)NC2=O)cc1
inactive: NCI/ADR-RES 10.4 µM | HOP-92 77.8 µM | Hs-578T 11 µM | SNB-19 43.7 µM | HOP-62 15.4 µM | TK-10 > 62.2 µM | DU-145 20.9 µM | MDA-MB-435 8.67 µM | OVCAR-4 > 100 µM | UACC-257 58.6 µM | SK-MEL-2 > 68.9 µM | CCRF-CEM 2.81 µM | SF-268 22.5 µM | LOX IMVI 13.5 µM | SK-MEL-28 4.91 µM | SR 2.53 µM | RPMI-8226 > 100 µM | COLO 205 > 100 µM | PC-3 > 69.3 µM

CCCCN1/C(=N/Nc2n[nH]c(=O)c3ccccc23)SCC1c1ccc(Cl)cc1 (stereo not given)
inactive: NCI/ADR-RES 8.79 µM | HOP-92 57.9 µM | Hs-578T 15.1 µM | SNB-19 10.6 µM | HOP-62 6.24 µM | TK-10 33.9 µM | DU-145 22.2 µM | MDA-MB-435 11 µM | OVCAR-4 53.3 µM | UACC-257 12.2 µM | SK-MEL-2 20.9 µM | SF-268 6.64 µM | K562 8.17 µM | SK-MEL-28 19.1 µM | SR 4.73 µM | RPMI-8226 4.72 µM | COLO 205 11.8 µM | PC-3 14 µM
